Among the data in ChEMBL document CHEMBL1127716, “-Ketothiazole inhibitors of prolyl endopeptidase” (Bioorg Med Chem Lett, 1994) are IC50 values, retold here.

In the experiment the target is Prolyl endopeptidase (Sus scrofa, UniProt P23687). The experiment in a line: Compound was evaluated for the inhibition of Prolyl endopeptidase (PEP) from pig kidney using Z-Gly-Pro-p-nitroanilide as substrate.
Prolyl endopeptidase, sequence (P23687 whole entry): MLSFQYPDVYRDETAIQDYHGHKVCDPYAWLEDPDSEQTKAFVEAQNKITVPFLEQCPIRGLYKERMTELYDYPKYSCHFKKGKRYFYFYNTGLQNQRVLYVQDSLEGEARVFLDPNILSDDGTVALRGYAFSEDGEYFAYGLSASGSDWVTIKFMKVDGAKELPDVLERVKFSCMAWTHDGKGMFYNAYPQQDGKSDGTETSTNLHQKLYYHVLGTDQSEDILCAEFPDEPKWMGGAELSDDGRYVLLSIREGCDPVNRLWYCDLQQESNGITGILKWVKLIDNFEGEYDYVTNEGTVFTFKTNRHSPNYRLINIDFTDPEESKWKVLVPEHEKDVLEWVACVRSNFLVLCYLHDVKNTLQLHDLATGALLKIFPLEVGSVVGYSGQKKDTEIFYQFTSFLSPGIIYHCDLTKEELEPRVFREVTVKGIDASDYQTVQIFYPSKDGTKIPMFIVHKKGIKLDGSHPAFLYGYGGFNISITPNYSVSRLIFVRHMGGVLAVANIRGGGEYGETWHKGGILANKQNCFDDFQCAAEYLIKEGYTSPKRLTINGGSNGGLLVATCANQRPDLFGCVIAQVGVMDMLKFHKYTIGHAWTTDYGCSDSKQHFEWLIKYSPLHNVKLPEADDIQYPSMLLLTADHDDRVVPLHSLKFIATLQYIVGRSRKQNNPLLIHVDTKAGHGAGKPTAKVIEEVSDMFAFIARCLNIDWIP

Consider `CCOC(=O)C(=O)[C@@H]1CCCN1C(=O)[C@@H]1CCCN1C(=O)CCCc1ccccc1`, for which half-maximal inhibition (IC50) was put at 9.6 nM.
`O=C(c1cscn1)[C@@H]1CCCN1C(=O)[C@@H]1CCCN1C(=O)CCCc1ccccc1` registered an IC50 of 5.9 nM.

By IC50 is commonly meant the concentration that inhibits the measured activity by half.
